Patent publication US10195185B2, “3-(1H-imidazo[4,5-C]pyridin-2-yl)-1H-pyrazolo[4,3-B]pyridines and therapeutic uses thereof” (Samumed, LLC, priority 2015, dated 2019)
pEC50: −log10 of the molar value.

Columns and labels:
Format in all cases: cell-based
[1] = test system: Wnt activity (Wnt-responsive human Sp5 promoter, TCF/LEF binding sites) in SW480 colon carcinoma cells; test: Wnt activity screening assay: Sp5-Luc luciferase reporter gene in SW480 cells; settings: for pEC50: 10-point dose-response from 10 μM, incubated overnight; for inhibition at 10 µM: given for EC50 of >10 μM, read-out: percent inhibition at 10 μM
Summary of the method: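 First, hygromycin-selected SW480 Sp5-Luc reporter cells are seeded in medium with 1% fetal bovine serum and exposed overnight to compound (up to 10 μM, 0.1% DMSO). Next, luciferase signal is read by luminescence. Finally, EC50 is fitted, or percent inhibition at 10 μM is reported above 10 μM.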

SW480 colon cancer cells = test: Cell viability assay (CellTiter-Blue), four days; settings: Homo sapiens, 96 h; for inhibition at 10 µM: read-out: percent inhibition at 10 μM (given for EC50 of >10 μM); for pEC50: CellTiter-Blue cell viability
Summary of the method: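 Approximately 2×10^3 SW480 cells per well are seeded with compound (8 points, threefold steps, top 10 μM) and incubated four days at 37 °C. CellTiter-Blue is then added for about 3 h and fluorescence read. Non-linear regression gives EC50; for values beyond 10 μM, percent inhibition at that concentration is listed.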

[2] = test system: IL-6 in human monocyte cell line (THP-1 cells); test: IL-6 inhibition in LPS-stimulated THP-1 cells (HTRF); settings: IL-6 in LPS-stimulated THP-1 cells; for pEC50: HTRF; for inhibition at 10 µM: read-out: percent inhibition in brackets beside EC50 >10 μM
Summary of the method: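 THP-1 cells, serum-reduced (1% FBS) for 24 h, were preincubated with compound (10-point 1:3 series from 10 μM, 0.1% DMSO) for 2 h, then stimulated with 500 ng/mL LPS for 22 h at 37° C. IL-6 was read by HTRF (665/620 nm ratio) and normalized to DMSO. EC50 from four-parameter fit; % inhibition at 10 μM given if EC50 >10 μM.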

| SMILES | pEC50 [1] | pEC50 (SW480 colon cancer cells) | pEC50 [2] | inhibition at 10 µM (SW480 colon cancer cells) [%] | inhibition at 10 µM [2] [%] | inhibition at 10 µM [1] [%] |
| --- | --- | --- | --- | --- | --- | --- |
| COc1cccc(-c2nccc3[nH]c(-c4n[nH]c5ccc(-c6cccnc6)nc45)nc23)c1 [Compound 994, 3-(4-(3-Methoxyphenyl)-1H-imidazo[4,5-c]pyridin-2-yl)-5-(pyridin-3-yl)-1H-pyrazolo[4,3-b]pyridine] | 6.38 | < 5.00 | < 5.00 | 0 | 18.6 |  |
| Cn1cc(-c2ccc3[nH]nc(-c4nc5c(-c6ccc(F)cc6)nccc5[nH]4)c3n2)c(CO)n1 [Compound 1128, (4-(3-(4-(4-Fluorophenyl)-1H-imidazo[4,5-c]pyridin-2-yl)-1H-pyrazolo[4,3-b]pyridin-5-yl)-1-methyl-1H-pyrazol-3-yl)methanol] | < 5.00 | < 5.00 | < 5.00 | 9.1 | 0 | 19.6 |
| Fc1ccccc1-c1nccc2[nH]c(-c3n[nH]c4ccc(-c5ccccn5)nc34)nc12 [Compound 84, 3-(4-(2-Fluorophenyl)-1H-imidazo[4,5-c]pyridin-2-yl)-5-(pyridin-2-yl)-1H-pyrazolo[4,3-b]pyridine] | 6.42 | < 5.00 | < 5.00 | 0 | 27.2 |  |
| c1cc2[nH]c(-c3n[nH]c4ccc(-c5cncc(OC6CCNCC6)c5)nc34)nc2cn1 [Compound 656, 3-(1H-Imidazo[4,5-c]pyridin-2-yl)-5-(5-(piperidin-4-yloxy)pyridin-3-yl)-1H-pyrazolo[4,3-b]pyridine] | < 5.00 | < 5.00 | < 5.00 | 10.9 | 41.3 | 15.4 |
| Cn1cc(-c2ccc3[nH]nc(-c4nc5c(-c6ccc7c(c6)OCO7)nccc5[nH]4)c3n2)c(CO)n1 [Compound 1151, (4-(3-(4-(Benzo[d][1,3]dioxol-5-yl)-1H-imidazo[4,5-c]pyridin-2-yl)-1H-pyrazolo [4,3-b]pyridin-5-yl)-1-methyl-1H-pyrazol-3-yl)methanol] | < 5.00 | < 5.00 | < 5.00 | 3.7 | 0 | 33.9 |
| NC1CN(c2cncc(-c3ccc4[nH]nc(-c5nc6c(-c7ccc(Cl)s7)nccc6[nH]5)c4n3)n2)C1 [Compound 1068, 1-(6-(3-(4-(5-Chlorothiophen-2-yl)-1H-imidazo[4,5-c]pyridin-2-yl)-1H-pyrazolo[4,3-b]pyridin-5-yl)pyrazin-2-yl)azetidin-3-amine] | 5.38 | < 5.00 | < 5.00 | 48.2 | 19.2 |  |
| Cc1ccc(-c2nccc3[nH]c(-c4n[nH]c5ccc(C6=CCNCC6)nc45)nc23)s1 [Compound 730, 3-(4-(5-Methylthiophen-2-yl)-1H-imidazo[4,5-c]pyridin-2-yl)-5-(1,2,3,6-tetrahydropyridin-4-yl)-1H-pyrazolo[4,3-b]pyridine] | < 5.00 | 5.28 | < 5.00 |  | 29.5 | 43.4 |
| c1cc2[nH]c(-c3n[nH]c4ccc(C5CCNCC5)nc34)nc2c(-c2ccc3c(c2)OCO3)n1 [Compound 1108, 3-(4-(Benzo[d][1,3]dioxol-5-yl)-1H-imidazo[4,5-c]pyridin-2-yl)-5-(piperidin-4-yl)-1H-pyrazolo[4,3-b]pyridine] | < 5.00 | < 5.00 | < 5.00 | 3.8 | 22.8 | 11 |

More lines, main results first:

| pEC50 [1] | pEC50 (SW480 colon cancer cells) | pEC50 [2] | SMILES | inhibition at 10 µM (SW480 colon cancer cells) [%] | inhibition at 10 µM [2] [%] | inhibition at 10 µM [1] [%] |
| --- | --- | --- | --- | --- | --- | --- |
| < 5.00 | < 5.00 | < 5.00 | COc1cccc(-c2nccc3[nH]c(-c4n[nH]c5ccc(-c6cncc(NC(=O)Cc7ccccc7)c6)nc45)nc23)c1 [Compound 1000, N-(5-(3-(4-(3-methoxyphenyl)-1H-imidazo[4,5-c]pyridin-2-yl)-1H-pyrazolo [4,3-b]pyridin-5-yl)pyridin-3-yl)-2-phenylacetamide] | 25.5 | 11.4 | 31.1 |
| 5.97 | 5.48 | < 5.00 | CC(C)(C)C(=O)Nc1cncc(-c2ccc3[nH]nc(-c4nc5c(-c6ccc(Cl)s6)nccc5[nH]4)c3n2)c1 [Compound 1043, N-(5-(3-(4-(5-Chlorothiophen-2-yl)-1H-imidazo[4,5-c]pyridin-2-yl)-1H-pyrazolo[4,3-b]pyridin-5-yl)pyridin-3-yl)pivalamide] |  | 0 |  |
| 5.41 | 5.70 | < 5.00 | CN(C)c1cncc(-c2ccc3[nH]nc(-c4nc5c(N6CCCCC6)nccc5[nH]4)c3n2)c1 [Compound 175, N,N-Dimethyl-5-(3-(4-(piperidin-1-yl)-1H-imidazo[4,5-c]pyridin-2-yl)-1H-pyrazolo [4,3-b]pyridin-5-yl)pyridin-3-amine] |  | 0 |  |
| < 5.00 | < 5.00 | < 5.00 | O=C(Nc1cncc(-c2ccc3[nH]nc(-c4nc5c(N6CCCCC6)nccc5[nH]4)c3n2)c1)C1CC1 [Compound 188, N-(5-(3-(4-(Piperidin-1-yl)-1H-imidazo[4,5-c]pyridin-2-yl)-1H-pyrazolo [4,3-b]pyridin-5-yl)pyridin-3-yl)cyclopropanecarboxamide] | 10.5 | 15.9 | 19 |
| < 5.00 | < 5.00 | < 5.00 | CC(C)(C)CC(=O)Nc1cncc(-c2ccc3[nH]nc(-c4nc5c(-c6ccccc6F)nccc5[nH]4)c3n2)c1 [Compound 72, N-(5-(3-(4-(2-fluorophenyl)-1H-imidazo[4,5-c]pyridin-2-yl)-1H-pyrazolo [4,3-b]pyridin-5-yl)pyridin-3-yl)-3,3-dimethylbutanamide] | 4.1 | 26.1 | 8.1 |
| < 5.00 | 5.02 | < 5.00 | Fc1ccc(-c2nccc3[nH]c(-c4n[nH]c5ccc(-c6cncc(CN7CCCC7)c6)nc45)nc23)cc1 [Compound 42, 3-(4-(4-Fluorophenyl)-1H-imidazo[4,5-c]pyridin-2-yl)-5-(5-(pyrrolidin-1-ylmethyl)pyridin-3-yl)-1H-pyrazolo[4,3-b]pyridine] |  | 23.3 | 28.2 |
| < 5.00 | < 5.00 | < 5.00 | CN1CCN(c2nccc3[nH]c(-c4n[nH]c5ccc(-c6cncnc6)nc45)nc23)CC1 [Compound 251, 3-(4-(4-Methylpiperazin-1-yl)-1H-imidazo[4,5-c]pyridin-2-yl)-5-(pyrimidin-5-yl)-1H-pyrazolo[4,3-b]pyridine] | 0 | 8.3 | 17.7 |
| < 5.00 | < 5.00 | < 5.00 | O=C(CC1CCNCC1)Nc1cncc(-c2ccc3[nH]nc(-c4nc5c(-c6ccsc6)nccc5[nH]4)c3n2)c1 [Compound 673, 2-(Piperidin-4-yl)-N-(5-(3-(4-(thiophen-3-yl)-1H-imidazo[4,5-c]pyridin-2-yl)-1H-pyrazolo[4,3-b]pyridin-5-yl)pyridin-3-yl)acetamide] | 6.6 | 40.5 | 22.6 |
| 5.51 | 5.79 | < 5.00 | CN(C)CC(=O)Nc1cncc(-c2ccc3[nH]nc(-c4nc5c(-c6cccc(F)c6)nccc5[nH]4)c3n2)c1 [Compound 969, 2-(Dimethylamino)-N-(5-(3-(4-(3-fluorophenyl)-1H-imidazo[4,5-c]pyridin-2-yl)-1H-pyrazolo[4,3-b]pyridin-5-yl)pyridin-3-yl)acetamide] |  | 31.8 |  |
| < 5.00 | < 5.00 | < 5.00 | CN1CCN(c2nccc3[nH]c(-c4n[nH]c5ccc(-c6cncc(NC(=O)C7CCCC7)c6)nc45)nc23)CC1 [Compound 246, N-(5-(3-(4-(4-Methylpiperazin-1-yl)-1H-imidazo[4,5-c]pyridin-2-yl)-1H-pyrazolo [4,3-b]pyridin-5-yl)pyridin-3-yl)cyclopentanecarboxamide] | 0 | 37.7 | 15 |
| < 5.00 | < 5.00 | < 5.00 | CC(C)C(=O)Nc1cncc(-c2ccc3[nH]nc(-c4nc5c(N6CCN(C)CC6)nccc5[nH]4)c3n2)c1 [Compound 233, N-(5-(3-(4-(4-Methylpiperazin-1-yl)-1H-imidazo[4,5-c]pyridin-2-yl)-1H-pyrazolo[4,3-b]pyridin-5-yl)pyridin-3-yl)isobutyramide] | 1.6 | 24 | 6.4 |
